The source of these data is PMC8286840, “Identifying SARS-CoV-2 antiviral compounds by screening for small molecule inhibitors of Nsp3 papain-like protease” (Biochemical Journal, 2021).

Counter-ions that a name gives are not always drawn. Like-named read-outs stand apart in the source and are kept apart here.

The target in experiment [1] is T1, SARS-CoV-2 PLpro (nsp3 1564–1878) (Severe acute respiratory syndrome coronavirus 2, UniProt P0DTD1). Kind of experiment: biochemical. Details: FRET-quenched peptide (Pro3) cleavage by PLpro, 10 min pre-incubation, slope over 20 min, normalised to no-compound control. The note with it: high concentration screen, read-out: % of control remaining.
Experimental: The plates were organized with columns 3–22 containing the compounds; the remaining columns were used for reaction controls including substrate only and substrate with enzyme but no compound (Figure 3Aii). The PLpro enzyme was pre-incubated with the compounds for 10 min, and then the reaction was initiated by the addition of substrate. […] We incubated the inhibitors with PLpro before the enzymatic reaction so that the slow-binding inhibitors will not be missed out [21]. […] Fluorescence was read on a Spark multimode microplate reader (Tecan) with an excitation wavelength at 330 nm and emission wavelength at 420 nm. […] An amount of 5 µl of the enzyme was pre-incubated with compounds for 10 min before the addition of 15 µl substrate. Fluorescence was monitored at 2 min for 20 min with 3 min intervals giving a total of seven readings.
Experiment [2] has as its target T1, SARS-CoV-2 PLpro (nsp3 1564–1878). In words: biochemical. Details: FRET-quenched peptide (Pro3) cleavage by PLpro, 10 min pre-incubation, slope over 20 min, normalised to no-compound control. The note with it: low concentration screen, read-out: % of control remaining.

For the molecule `CNc1ncnc2c1ncn2[C@@H]1O[C@H](CO)[C@@H](O)[C@H]1O` [N6-Methyladenosine], the results for the remaining activity at 3.75 µM in experiment [1] (Well no.=930) and in experiment [1] (Well no.=8052) were 96.9% and 96.2%, respectively. The figures for the remaining activity at 1.25 µM in experiment [2] (Well no.=930) and in experiment [2] (Well no.=8052) were 97.7% and 95.7%, respectively.
In the case of `OC[C@H]1O[C@@H](n2cnc3c(Nc4ccccc4)ncnc32)[C@H](O)[C@@H]1O` [N6-Phenyladenosine], in experiment [1] (Well no.=1501), the remaining activity at 3.75 µM amounted to 100%. In addition, in experiment [2] (Well no.=1501), the remaining activity at 1.25 µM stood at 97.5%.
For the molecule `CC(C)n1cnc2c(NCc3ccccc3)nc(NCCO)nc21` [N9-Isopropylolomoucine], in experiment [1] (Well no.=716), the remaining activity at 3.75 µM came out at 98.5%. For the same molecule, the remaining activity at 1.25 µM in experiment [2] (Well no.=716) was 96.5%.
`CC(C)c1ccc(C(=O)N=C(N)N)cc1S(C)(=O)=O` [N''-[4-isopropyl-3-(methylsulfonyl)benzoyl]guanidine]: in experiment [1] (Well no.=5586), the remaining activity at 3.75 µM is 91.3%. Further, the remaining activity at 1.25 µM in experiment [2] (Well no.=5586) was 91.7%.
For `CN(C)C(=O)N=NC(=O)N(C)C` [N,N,N',N'-Tetramethylazodicarboxamide], the remaining activity at 3.75 µM in experiment [1] (Well no.=735) came out at 98.5%. The remaining activity at 1.25 µM in experiment [2] (Well no.=735) amounted to 94.9%.
Take `CC(COc1ccc(/C=C/c2ccccc2)cc1)[N+](C)(C)C` (stereo not drawn) [N,N,N-trimethyl-1-(4-trans-stilbenoxy)-2-propylammonium iodide]: the remaining activity at 3.75 µM in experiment [1] (Well no.=1531) stood at 99.7%. Moreover, the remaining activity at 1.25 µM in experiment [2] (Well no.=1531) was determined as 98.1%.
For the molecule `CCCCCCN(CCCCCC)C(=O)Cc1c(-c2ccc(F)cc2)[nH]c2ccccc12` [N,N-Dihexyl-2-(4-fluorophenyl)indole-3-acetamide], the remaining activity at 3.75 µM in experiment [1] (Well no.=632) came to 96.6%. Moreover, in experiment [2] (Well no.=632), the remaining activity at 1.25 µM turned out to be 99.3%.
Regarding `CCCN(CCC)CCc1c[nH]c2ccc(C(N)=O)cc12` [N,N-Dipropyl-5-carboxamidotryptamine maleate], the remaining activity at 3.75 µM in experiment [1] (Well no.=402) is 97.1%. In addition, the remaining activity at 1.25 µM in experiment [2] (Well no.=402) came out at 95.4%.
Consider `COc1cc2nccc(Oc3ccc(NC(=O)Nc4ccc(F)cc4F)c(F)c3)c2cc1OC` [N-(2,4-Difluorophenyl)-N'-[4-[(6,7-dimethoxy-4-quinolinyl)oxy]-2-fluorophenyl]urea], for which the remaining activity at 3.75 µM in experiment [1] (Well no.=2572) is 98.1%. In addition, the remaining activity at 1.25 µM in experiment [2] (Well no.=2572) amounted to 92%.
Regarding `Cc1nn(C)c2nc(NNC(=O)Nc3cc(Cl)nc(Cl)c3)cc(C(C)C)c12` [N-(2,6-dichloro-4-pyridinyl)-2-(4-isopropyl-1,3-dimethyl-1H-pyrazolo[3,4-b]pyridin-6-yl)hydrazinecarboxamide], the remaining activity at 3.75 µM in experiment [1] (Well no.=5923) came to 100%. In experiment [2] (Well no.=5923), the remaining activity at 1.25 µM turned out to be 104%.
Regarding `COc1cccc(C(=O)NCCN2CCN(c3ccc(Cl)cc3)CC2)c1` [N-(2-[4-(4-Chlorophenyl)piperazin-1-yl]ethyl)-3-methoxybenzamide], the remaining activity at 3.75 µM in experiment [1] (Well no.=232) worked out at 99.4%. Further, the remaining activity at 1.25 µM in experiment [2] (Well no.=232) was found to be 99.5%.
Consider `CCCN(CCC)CC1CCCCN1CCNC(=O)N1c2ccccc2C(=O)Nc2cccnc21` (centres unmarked) [N-(2-{2-[(dipropylamino)methyl]-1-piperidinyl}ethyl)-6-oxo-5,6-dihydro-11H-pyrido[2,3-b][1,4]benzodiazepine-11-carboxamide], for which the remaining activity at 3.75 µM in experiment [1] (Well no.=5609) was 101%. Besides, the remaining activity at 1.25 µM in experiment [2] (Well no.=5609) was 101%.
As to `COc1ccc(S(=O)(=O)Nc2cc(Cl)cc(Cl)c2OC)cc1N1CCNCC1` [N-(3,5-dichloro-2-methoxyphenyl)-4-methoxy-3-(piperazin-1-yl)benzenesulfonamide hydrochloride], the remaining activity at 3.75 µM in experiment [1] (Well no.=5561) amounted to 103%. In addition, the remaining activity at 1.25 µM in experiment [2] (Well no.=5561) is 97.1%.
Regarding `Nc1ccc(N2C(=O)c3ccccc3C2=O)c(Cl)c1` [N-(4-Amino-2-chlorophenyl)phthalimide], the remaining activity at 3.75 µM in experiment [1] (Well no.=344) came to 96.5%. In addition, the remaining activity at 1.25 µM in experiment [2] (Well no.=344) amounted to 95.3%.
Turning to `NCCCCNS(=O)(=O)c1ccc2c(Cl)cccc2c1` [N-(4-Aminobutyl)-5-chloro-2-naphthalenesulfonamide hydrochloride], in experiment [1] (Well no.=55), the remaining activity at 3.75 µM came to 106%. Also, the remaining activity at 1.25 µM in experiment [2] (Well no.=55) turned out to be 104%.
Take `COc1ccc2c(c1)c(CC(=O)Nc1ccc(NC(C)=O)cc1)c(C)n2C(=O)c1ccc(Cl)cc1` [N-(4-acetamidophenyl)indomethacinamide]: the remaining activity at 3.75 µM in experiment [1] (Well no.=343) was determined as 97.9%. For the same molecule, the remaining activity at 1.25 µM in experiment [2] (Well no.=343) was 98.3%.
`CC(=O)NCCCCCN` [N-(5-Aminopentyl)acetamide]: in experiment [1] (Well no.=6155), the remaining activity at 3.75 µM came to 89.4%. The remaining activity at 1.25 µM in experiment [2] (Well no.=6155) was 98.4%.
Take `COc1ccc(Cl)cc1NC(=O)Nc1cc(C)nc2ccccc12` [N-(5-Chloro-2-methoxyphenyl)-N'-(2-methyl-4-quinolinyl)urea]: the remaining activity at 3.75 µM in experiment [1] (Well no.=2626) was 101%. Further, the remaining activity at 1.25 µM in experiment [2] (Well no.=2626) amounted to 100%.
As for `C#CCNCc1cc2cc(OCc3ccccc3)ccc2[nH]1` [N-((5-(benzyloxy)-1H-indol-2-yl)methyl)prop-2-yn-1-amine], the remaining activity at 3.75 µM in experiment [1] (Well no.=5630) came to 96.5%. Besides, the remaining activity at 1.25 µM in experiment [2] (Well no.=5630) worked out at 95.4%.
In the case of `CC(=O)NCCc1c[nH]c2ccc(O)cc12` [N-Acetyl-5-hydroxytryptamine], the remaining activity at 3.75 µM in experiment [1] (Well no.=201) came to 103%. Besides, in experiment [2] (Well no.=201), the remaining activity at 1.25 µM came to 102%.
In the case of `CC(=O)N[C@@H](CS)C(=O)O` [N-Acetyl-Cysteine], the remaining activity at 3.75 µM in experiment [1] (Well no.=4036) worked out at 96.7%. In addition, the remaining activity at 1.25 µM in experiment [2] (Well no.=4036) is 97.8%.
For `CC(=O)N[C@@H]1[C@@H](O)[C@H](O)[C@@H](CO)O[C@@H]1O` [N-Acetyl-D-glucosamine], the remaining activity at 3.75 µM in experiment [1] (Well no.=6881) came out at 95%. The remaining activity at 1.25 µM in experiment [2] (Well no.=6881) turned out to be 100%.
For the molecule `CC(=O)N[C@@H](CS)C(=O)O` [N-Acetyl-L-Cysteine], in experiment [1] (Well no.=4), the remaining activity at 3.75 µM is 97.6%. In experiment [2] (Well no.=4), the remaining activity at 1.25 µM came to 98.3%.
On to `CC(=O)N[C@@H](CC(=O)O)C(=O)O` [N-Acetyl-L-aspartic acid], for which the figures for the remaining activity at 3.75 µM in experiment [1] (Well no.=6645) and in experiment [1] (Well no.=7690) were 98.5% and 96.5%, respectively. Besides, the remaining activity at 1.25 µM is 98.3% in experiment [2] (Well no.=6645) and 101% in experiment [2] (Well no.=7690).
As to `CC(=O)N[C@@H](CC(C)C)C(=O)O` [N-Acetyl-L-leucine], the remaining activity at 3.75 µM in experiment [1] (Well no.=7596) is 98.8%. In addition, the remaining activity at 1.25 µM in experiment [2] (Well no.=7596) came to 97%.
In the case of `CC(=O)N[C@@H](Cc1ccc(O)cc1)C(=O)O` [N-Acetyl-L-tyrosine], the remaining activity at 3.75 µM was 104% in experiment [1] (Well no.=6677) and 99.9% in experiment [1] (Well no.=8704). For the same molecule, the remaining activity at 1.25 µM is 105% in experiment [2] (Well no.=6677) and 101% in experiment [2] (Well no.=8704).
Consider `CCCCC/C=C\C\C=C/C=C/C=C/[C@@H](SCC(NC(C)=O)C(=O)O)[C@@H](O)CCCC(=O)O` (some centres unmarked) [N-Acetyl-leukotriene E4], for which the remaining activity at 3.75 µM in experiment [1] (Well no.=4435) worked out at 102%. For the same molecule, the remaining activity at 1.25 µM in experiment [2] (Well no.=4435) is 101%.
For the molecule `CC(=O)NCCc1ccc(O)c(O)c1` [N-Acetyldopamine monohydrate], the remaining activity at 3.75 µM in experiment [1] (Well no.=56) was 101%. Further, the remaining activity at 1.25 µM in experiment [2] (Well no.=56) came to 98.3%.
